{
  "source": "patent US9315475B2",
  "about": "(MERCK SHARP & DOHME CORP., priority 2011, dated 2016)",
  "biological_target": "T1, wildtype HIV-1 protease (Human immunodeficiency virus type 1 group M subtype B, UniProt P04585)",
  "T1 construct": "the wildtype HIV-1 protease (which was expressed in Escherichia coli); made in house; host or cells: Escherichia coli",
  "assay": "Assay for inhibition of microbial expressed HIV protease (Pepcleav)",
  "type": "biochemical",
  "settings": "wild type HIV-1 protease expressed in E. coli, peptide substrate, pH 5.5; mean of at least two independent experiments; read-out: Pepcleav",
  "procedure,_shortened": "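E. coli-expressed wild-type HIV-1 protease (20 pM) preincubated 30 min at room temperature with inhibitor in pH 5.5 sodium acetate/NaCl/BSA buffer, then 400 μM Val-Ser-Gln-Asn-(βnaphthyl)Ala-Pro-Ile-Val added for 1 h at 30 °C. Quenched with formic acid; product quantified by LC-MS/MS peak area, indinavir internal standard.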",
  "data": [
    {"smiles": "COC(=O)N[C@H](C(=O)Nc1ccccc1CC[C@@H]1CN[C@H](C(=O)N2CCCC2)CO1)C(c1ccccc1)c1ccccc1", "note": "[Example 5, Nα-(methoxycarbonyl)-β-phenyl-N-(2-{2-[(2R,5S)-5-(pyrrolidin-1-ylcarbonyl)morpholin-2-yl]ethyl}phenyl)-L-phenylalaninamide]", "values": [
      {"measurement": "IC50", "value": 80, "unit": "nM"}
    ]},
    {"smiles": "COC(=O)N[C@H](C(=O)Nc1ccccc1CC[C@@H]1CN[C@H](CCc2ccccc2N)CO1)C(c1ccccc1)c1ccccc1", "note": "[Example 72, methyl N-[(1S)-1-[[2-[2-[(2R,5R)-5-[2-(2-aminophenyl)ethyl]morpholin-2-yl]ethyl]phenyl]carbamoyl]-2,2-diphenyl-ethyl]carbamate]", "values": [
      {"measurement": "IC50", "value": 14, "unit": "nM"}
    ]},
    {"smiles": "COC(=O)N[C@H](C(=O)Nc1ccccc1CC[C@@H]1CN[C@H](COC(=O)NCc2cccnc2)CO1)C(c1ccccc1)c1ccccc1", "note": "[Example 20, methyl N-[(1S)-1-benzhydryl-2-oxo-2-[[2-[2-[(2R,5S)-5-(3-pyridylmethylcarbamoyloxymethyl)morpholin-2-yl]ethyl]phenyl]amino]ethyl]carbamate]", "values": [
      {"measurement": "IC50", "value": 78, "unit": "nM"}
    ]},
    {"smiles": "COC(=O)N[C@H](C(=O)Nc1ccccc1CC[C@@H]1CN[C@H](C(=O)NC(C)(C)C)CO1)C(c1ccccc1)c1ccccc1", "note": "[Example 8, N-(2-{2-[(2R,5S)-5-(tert-butylcarbamoyl)morpholin-2-yl]ethyl}phenyl)-Nα-(methoxycarbonyl)-β-phenyl-L-phenylalaninamide]", "values": [
      {"measurement": "IC50", "value": 41, "unit": "nM"}
    ]},
    {"smiles": "COC(=O)N[C@H](C(=O)Nc1ccccc1CC(F)[C@@H]1CN[C@H](COC(=O)NCc2ccc(F)cc2)CO1)C(c1ccccc1)c1ccccc1", "note": "(stereo partly drawn) [Example 78, N-(2-{2-fluoro-2-[(2S,5S)-5-({[(4-fluorobenzyl)carbamoyl]oxy}methyl)morpholin-2-yl]ethyl}phenyl)-Nα-(methoxycarbonyl)-β-phenyl-L-phenylalaninamide]", "values": [
      {"measurement": "IC50", "value": 59, "unit": "nM"}
    ]},
    {"smiles": "COC(=O)N[C@H](C(=O)Nc1ccccc1CC[C@@H]1CN[C@H](CNS(=O)(=O)c2ccccc2)CO1)C(c1ccccc1)c1ccccc1", "note": "[Example 44, Nα-(methoxycarbonyl)-β-phenyl-N-(2-{2-[(2R,5R)-5-{[(phenylsulfonyl)amino]methyl}morpholin-2-yl]ethyl}phenyl)-L-phenylalaninamide]", "values": [
      {"measurement": "IC50", "value": 26, "unit": "nM"}
    ]},
    {"smiles": "O=C(NCC(F)(F)F)OC[C@@H]1CO[C@H](CCc2c(F)cncc2NC(=O)[C@@H](NC(=O)OCC(F)(F)F)C(c2ccc(F)cc2)c2ccc(F)cc2)CN1", "note": "[Example 141, 4-Fluoro-β-(4-fluorophenyl)-N-(5-fluoro-4-{2-[(2R,5S)-5-({[(2,2,2-trifluoroethyl)carbamoyl]oxy}methyl)morpholin-2-yl]ethyl}pyridin-3-yl)-Nα-[(2,2,2-trifluoroethoxy)carbonyl]-L-phenylalaninamide]", "values": [
      {"measurement": "IC50", "value": 180, "unit": "nM"}
    ]},
    {"smiles": "COC(=O)N[C@H](C(=O)Nc1ccccc1CC[C@@H]1CN[C@H](CNS(=O)(=O)c2ccccn2)CO1)C(c1ccccc1)c1ccccc1", "note": "[Example 48, methyl N-[(1S)-1-benzhydryl-2-oxo-2-[[2-[2-[(2R,5R)-5-[(2-pyridylsulfonylamino)methyl]morpholin-2-yl]ethyl]phenyl]amino]ethyl]carbamate]", "values": [
      {"measurement": "IC50", "value": 91, "unit": "nM"}
    ]},
    {"smiles": "N[C@H](C(=O)Nc1ccc(F)cc1CC[C@@H]1CN[C@H](COC(=O)NCC(F)F)CO1)C(c1ccccc1)c1ccccc1", "note": "[Example 192, N-(2-{2-[(2R,5S)-5-({[(2,2-difluoroethyl)carbamoyl]oxy}methyl)morpholin-2-yl]ethyl}-4-fluorophenyl)-β-phenyl-L-phenylalaninamide]", "values": [
      {"measurement": "IC50", "value": 130, "unit": "nM"}
    ]},
    {"smiles": "COC(=O)N[C@H](C(=O)Nc1ccccc1CC[C@@H]1CN[C@H](Cn2ccnn2)CO1)C(c1ccccc1)c1ccccc1", "note": "[Example 66, Nα-(methoxycarbonyl)-β-phenyl-N-(2-{2-[(2R,5R)-5-(1H-1,2,3-triazol-1-ylmethyl)morpholin-2-yl]ethyl}phenyl)-L-phenylalaninamide]", "values": [
      {"measurement": "IC50", "value": 100, "unit": "nM"}
    ]},
    {"smiles": "CNC(=O)OC[C@@H]1CO[C@H](CCc2ccccc2NC(=O)[C@@H](NC(=O)OC)C(c2ccccc2)c2ccccc2)CN1", "note": "[Example 30]", "values": [
      {"measurement": "IC50", "value": 32, "unit": "nM"}
    ]},
    {"smiles": "COC(=O)N[C@H](C(=O)Nc1ccccc1CC[C@@H]1CN[C@H](CNS(=O)(=O)C2CC2)CO1)C(c1ccccc1)c1ccccc1", "note": "[Example 47, methyl N-[(1S)-1-benzhydryl-2-[[2-[2-[(2R,5R)-5-[(cyclopropyl-sulfonylamino)methyl]morpholin-2-yl]ethyl]phenyl]amino]-2-oxo-ethyl]carbamate]", "values": [
      {"measurement": "IC50", "value": 84, "unit": "nM"}
    ]},
    {"smiles": "CCC[C@H](c1ccccc1)[C@H](N)C(=O)Nc1cccc(F)c1CC[C@@H]1CN[C@H](COC(=O)NCC(F)(F)F)CO1", "note": "[Example 228, (βR)-N-(3-fluoro-2-{2-[(2R,5S)-5-({[(2,2,2-trifluoroethyl)carbamoyl]oxy}methyl)morpholin-2-yl]ethyl}phenyl)-β-propyl-L-phenylalaninamide]", "values": [
      {"measurement": "IC50", "value": 190, "unit": "nM"}
    ]},
    {"smiles": "COC(=O)N[C@H](C(=O)Nc1ccccc1CC[C@@H]1CN[C@H](COC(=O)NCC2CC2)CO1)C(c1ccccc1)c1ccccc1", "note": "[Example 22, methyl N-[(1S)-1-benzhydryl-2-[[2-[2-[(2R,5S)-5-(cyclopropylmethylcarbamoyloxymethyl)morpholin-2-yl]ethyl]phenyl]amino]-2-oxo-ethyl]carbamate]", "values": [
      {"measurement": "IC50", "value": 58, "unit": "nM"}
    ]},
    {"smiles": "COC(=O)N[C@H](C(=O)Nc1ccccc1CC[C@@H]1CN[C@H](Cn2cc([Si](C)(C)C)nn2)CO1)C(c1ccccc1)c1ccccc1", "note": "[Example 65, Nα-(methoxycarbonyl)-β-phenyl-N-(2-{2-[(2R,5R)-5-{[4-(trimethylsilyl)-1H-1,2,3-triazol-1-yl]methyl}morpholin-2-yl]ethyl}phenyl)-L-phenylalaninamide]", "values": [
      {"measurement": "IC50", "value": 43, "unit": "nM"}
    ]},
    {"smiles": "N[C@H](C(=O)Nc1c(F)cccc1OC[C@@H]1CN[C@H](COC(=O)NCC(F)(F)F)CO1)C(c1ccc(F)cc1)c1ccc(F)cc1", "note": "[Example 200, 4-fluoro-β-(4-fluorophenyl)-N-(2-fluoro-6-{[(2S,5S)-5-({[(2,2,2-trifluoroethyl)carbamoyl]oxy}methyl)morpholin-2-yl]methoxy}phenyl)-L-phenylalaninamide]", "values": [
      {"measurement": "IC50", "value": 31, "unit": "nM"}
    ]},
    {"smiles": "COC(=O)N[C@H](C(=O)Nc1ccccc1CC[C@@H]1CN[C@H](COC(=O)N[C@H]2c3ccccc3C[C@H]2O)CO1)C(c1ccccc1)c1ccccc1", "note": "[Example 14, N-[2-(2-{(2R,5S)-5-[({[(1S,2R)-2-hydroxy-2,3-dihydro-1H-inden-1-yl]carbamoyl}oxy)methyl]morpholin-2-yl}ethyl)phenyl]-Nα-(methoxycarbonyl)-β-phenyl-L-phenylalaninamide]", "values": [
      {"measurement": "IC50", "value": 17, "unit": "nM"}
    ]},
    {"smiles": "COC(=O)N[C@H](C(=O)Nc1ccccc1CC[C@@H]1CN[C@H](CNS(=O)(=O)c2ccc3cnnn3c2)CO1)C(c1ccccc1)c1ccccc1", "note": "[Example 45, methyl N-[(1S)-1-benzhydryl-2-oxo-2-[[2-[2-[(2R,5R)-5-[(triazolo[1,5-a]pyridin-6-ylsulfonylamino)methyl]morpholin-2-yl]ethyl]phenyl]amino]ethyl]carbamate]", "values": [
      {"measurement": "IC50", "value": 21, "unit": "nM"}
    ]},
    {"smiles": "COC(=O)N[C@H](C(=O)Nc1ccccc1CC[C@@H]1CN[C@H](CCc2ccccc2NC(=O)OCc2ccccc2)CO1)C(c1ccccc1)c1ccccc1", "note": "[Example 74, methyl N-[(1S)-1-benzhydryl-2-[[2-[2-[(2R,5R)-5-[2-(2-benzyloxycarbonylamino-phenyl)ethyl]morpholin-2-yl]ethyl]phenyl]amino]-2-oxo-ethyl]carbamate]", "values": [
      {"measurement": "IC50", "value": 10, "unit": "nM"}
    ]},
    {"smiles": "COC(=O)N[C@H](C(=O)Nc1cccc(F)c1CC[C@@H]1CN[C@H](COC(=O)NCC(F)(F)F)CO1)[C@H](c1ccc(F)cc1)c1cccc(OC)c1", "note": "[Example 306, (βR)-4-fluoro-N-(3-fluoro-2-{2-[(2R, 5S)-5-({[(2,2,2-trifluoroethyl)carbamoyl]oxy}methyl)morpholin-2-yl]ethyl}phenyl)-Nα-(methoxy-carbonyl)-β-(3-methoxyphenyl)-L-phenylalaninamide]", "values": [
      {"measurement": "IC50", "value": 170, "unit": "nM"}
    ]},
    {"smiles": "COC(=O)N[C@H](C(=O)Nc1ccccc1CC[C@@H]1CN[C@H](C(=O)NCc2ccccc2)CO1)C(c1ccccc1)c1ccccc1", "note": "[Example 2, N-(2-{2-[(2R,5S)-5-(benzylcarbamoyl)morpholin-2-yl]ethyl}phenyl)-Nα-(methoxycarbonyl)-β-phenyl-L-phenylalaninamide]", "values": [
      {"measurement": "IC50", "value": 1.4, "unit": "nM"}
    ]},
    {"smiles": "COC(=O)N[C@H](C(=O)Nc1ccccc1CC[C@@H]1CN[C@H](COC(=O)NC2CCc3ccccc32)CO1)C(c1ccccc1)c1ccccc1", "note": "(stereo partly drawn) [Example 15, N-(2-{2-[(2R,5S)-5-{[(2,3-dihydro-1H-inden-1-ylcarbamoyl)oxy]methyl}morpholin-2-yl]ethyl}phenyl)-Nα-(methoxycarbonyl)-β-phenyl-L-phenylalaninamide]", "values": [
      {"measurement": "IC50", "value": 4.1, "unit": "nM"}
    ]},
    {"smiles": "N[C@H](C(=O)Nc1cccc(C(F)(F)F)c1CC[C@@H]1CN[C@H](COC(=O)NCC(F)(F)F)CO1)C(c1ccccc1)c1ccccc1", "note": "[Example 234, β-phenyl-N-[2-{2-[(2R,5S)-5-({[(2,2,2-trifluoroethyl)carbamoyl]oxy}methyl)morpholin-2-yl]ethyl}-3-(trifluoromethyl)phenyl]-L-phenylalaninamide]", "values": [
      {"measurement": "IC50", "value": 110, "unit": "nM"}
    ]},
    {"smiles": "COC(=O)N[C@H](C(=O)Nc1ccccc1CC[C@@H]1CN[C@H](COC(=O)NCc2ccc3nonc3c2)CO1)C(c1ccccc1)c1ccccc1", "note": "[Example 21, methyl N-[(1S)-1-benzhydryl-2-[[2-[2-[(2R,5S)-5-(2,1,3-benzoxadiazol-5-ylmethylcarbamoyloxymethyl)morpholin-2-yl]ethyl]phenyl]amino]-2-oxo-ethyl]carbamate]", "values": [
      {"measurement": "IC50", "value": 52, "unit": "nM"}
    ]},
    {"smiles": "COC(=O)N[C@H](C(=O)Nc1cncnc1CC[C@@H]1CN[C@H](COC(=O)NCc2ccc(F)cc2)CO1)C(c1ccccc1)c1ccccc1", "note": "[Example 36, N-(4-{2-[(2R,5S)-5-({[(4-fluorobenzyl)carbamoyl]oxy}methyl)morpholin-2-yl]ethyl}pyrimidin-5-yl)-Nα-(methoxycarbonyl)-β-phenyl-L-phenylalaninamide]", "values": [
      {"measurement": "IC50", "value": 24, "unit": "nM"}
    ]}
  ]
}
